The results in this text go back to patent US6964783B1, “Non-solid composition for local application” (Naturveda, priority 1999, dated 2005).

The structures appear in SMILES notation.

The subject of this experiment is 0.4×0.4 cm wound. The experiment can be described thus: Wound healing in shaved rats after local application. The format is in vivo. The conditions noted are these: 0.2 ml applied on wound. The protocol: 30 rats (IFFA-CREDO SPF weighing 200+/−20 g) were shaved (3×3 cm) on the right side of the back. A 0.4×0.4 cm wound was produced at the centre of the shaved area. 30 minutes after producing the small wound, the coagulated blood was removed and 0.2 ml of glycerine containing 3% Alchemilla vulgaris (preparation according to example 4) or 0.2 ml of pure glycerine (controls) were applied on ten animals. The ten other control rats received 0.2 ml of distilled water. The complete healing time and the healing index were determined each day for 10 days. The healing time was reduced by 48% with the treatment based on glycerine containing 3% Alchemilla vulgaris, with a healing index of 2.1 in the treated lot, compared to an index of 3.3 obtained with the control lot.
With glycerine alone, the healing time was reduced by 26% with a healing index of 2.7.

On to `OCC(O)CO` [glycerine alone, glycerine], for which the healing index (determined each day for 10 days, control lot 3.3) was 2.7. The “healing time reduced by” value (followed each day for 10 days, versus control lot) is 26%.
